Patent publication US6429188B1, “Method for treating the endotoxic shock in mammals” (Universidad Complutense de Madrid, priority 1998, dated 2002)

How the values were obtained:
[1] = tested on: IL-6 production in peritoneal murin macrophages stimulated with LPS; assay: Production of IL-6 by peritoneal murine macrophages stimulated with LPS; format: cell-based, mouse; conditions: for Degree of inhibition of IL-6 production when added after stimulation with LPS: peptide added at different times after LPS; for IC50: peritoneal murin macrophages stimulated with LPS, read-out: IC50 for inhibition of IL-6 production; for Highest degree of inhibition of IL-6 production: peritoneal murin macrophages, LPS 10 ngr./ml
Description: FIG. 3 represents the production of IL-6 by murin macrophages in culture (5×10^5 cells/ml) stimulated with 10 ngr/ml of LPS in presence or absence of 10^−8 M of VIP or PACAP over a period of 24 hours.
FIG. 4 represents the production of IL-6 by murin macrophages in culture (5×10^5 cells/ml) after 6 hours of culture with 10 ngr/ml of LPS and to which 10^−8 M of VIP or PACAP is added at different times.
In experiments carried out in vitro VIP and PACAP inhibit the production of IL-6 in peritoneal murin macrophages stimulated with LPS. The highest degree of inhibition reaches levels near to 90% and occurs with doses of stimulation of 10 ngr./ml of LPS.

[2] = tested on: lethal effects of LPS in mice; assay: Survival of mice injected with a lethal dose of LPS; format: in vivo; conditions: 400 μgr LPS; for Survival rate, administration up to 1 hour after LPS: peptide up to 1 hour after LPS; for Survival rate at the end of the experiment: simultaneous 5 nmol peptide, 4-day period
Description: FIG. 6 represents the survival of mice injected with 400 μgr. of LPS and, either simultaneously or after 30 minutes, 1 or 4 hours, with 5 nmol. of VIP or PACAP. A. Control; B: VIP a 0 h.; C: VIP a 0.5 h; D: VIP a 1 h.; E: VIP a 4 h.;
An experiment was carried out in which the survival over a 4-day period was studied of mice that had been injected with 400 μgr. of LPS. The mortality in these circumstances was 100% after 36 hours. With simultaneous administration of 5 nmol. of VIP or PACAP a survival rate of 60% was attained at the end of the experiment. Administration of neuropeptides up to 1 hour after injection with LPS still gave survival rates near to 50%.

mRNA of IL-6 = assay: Northern blot for IL-6 mRNA in LPS-activated macrophages; format: cell-based, Mouse; conditions: macrophages activated with LPS and exposed to peptide
Description: (§1) Mouse macrophages were submitted to the experimental conditions of examples 1 and 3 and their mRNA isolated. This was then analysed using the Northern Blot technique to detect mRNA of TNFα and IL-6.

mRNA of TNFα = assay: Northern blot for TNFα mRNA in LPS-activated macrophages; format: cell-based, Mouse; conditions: macrophages activated with LPS and exposed to peptide
Description: as §1

circulating IL-6 = assay: Levels of circulating IL-6 in mice after injection of LPS; format: in vivo; conditions: 2 hours after 25 μgr LPS, simultaneous 5 nmol peptide
Description: In an experiment carried out with mice the levels of circulating IL-6 2 hours after injection of 25 μgr. of LPS approach 1.5 ngr./ml Simultaneous administration of 5 nmol of VIP or PACAP reduced said levels by 60% and 75% respectively.

[3] = tested on: TNFα production in peritoneal murin macrophages stimulated with LPS; assay: Production of TNFα by peritoneal murine macrophages stimulated with LPS; format: cell-based, mouse; conditions: for Inhibitory effect on TNFα production when added after 4 hours: peptide added 4 hours after LPS; for Inhibitory effect on TNFα production when added up until 1 hour after LPS stimulation: peptide added up until 1 hour after LPS, compared with simultaneous addition; for IC50: peritoneal murin macrophages stimulated with LPS, read-out: IC50 for inhibition of TNFα production; for Highest degree of inhibition of TNFα production: peritoneal murin macrophages, LPS 1 to 10 ng/ml
Description: FIG. 1 represents the production of TNFα by murin macrophages in culture (5×10^5 […]) stimulated with 10 ngr/ml of LPS in presence or absence of 10^−8 M of VIP or PACAP over a period of 24 hours.
FIG. 2 represents the production of TNFα by murin macrophages in culture (5×10^5 cells/ml) after 6 hours of culture with 10 ngr/ml of LPS and to which 10^−8 M of VIP or PACAP is added at different times.
In experiments carried out in vitro VIP and PACAP inhibit the production of TNFα in peritoneal murin macrophages stimulated with LPS. The highest degree of inhibition reaches levels near to 60% and occurs with doses of stimulation between 1 and 10 ng/ml of LPS. The IC50 is around 80 pM, both for VIP and for PACAP and the effect was observed until the end of the experiment (see FIG. 1). The inhibitory effect is the same if both neuropeptides are added up until 1 hour after stimulating the macrophages with LPS, although it reduces progressively until disappearing if added after 4 hours (see FIG. 2).

circulating TNFα = assay: Levels of circulating TNFα in mice after injection of LPS; format: in vivo; conditions: 2 hours after 25 μgr LPS, simultaneous 5 nmol peptide
Description: In an experiment carried out with mice the levels of circulating TNFα 2 hours after injection of 25 μgr. of LPS approach 4 ngr./ml. Simultaneous administration of 5 nmol of VIP or PACAP reduced said levels by 60%.

“PACAP [two molecular forms PACAP-38 and PACAP-27]” was tested, and the “Degree of inhibition of IL-6 production when added after stimulation with LPS” value [1] was “progressively less”, the IC50 [1] was 0.0086 nM and the “Highest degree of inhibition of IL-6 production” value [1] was about 90%. The “Survival rate, administration up to 1 hour after LPS” value [2] was about 50%, the “Survival rate at the end of the experiment” value [2] was 60% and the “Transcripts for IL-6 (Northern blot)” value (mRNA of IL-6) was “absence of transcripts”. The “Transcripts for TNFα (Northern blot)” value (mRNA of TNFα) was “absence of transcripts”, the “Reduction of circulating IL-6 levels” value (circulating IL-6) was 75% and the “Inhibitory effect on TNFα production when added after 4 hours” value [3] was “disappearing”. The “Inhibitory effect on TNFα production when added up until 1 hour after LPS stimulation” value [3] was “the same”, the IC50 [3] was about 0.08 nM and the “Highest degree of inhibition of TNFα production” value [3] was about 60%. The “Reduction of circulating TNFα levels” value (circulating TNFα) was 60%.

With HSDAVFTDNYTRLRKMAVKKYLNSILN [VIP] the “Degree of inhibition of IL-6 production when added after stimulation with LPS” value [1] was “progressively less”, the IC50 [1] was 0.0086 nM and the “Highest degree of inhibition of IL-6 production” value [1] was about 90%. The “Survival rate, administration up to 1 hour after LPS” value [2] was about 50%, the “Survival rate at the end of the experiment” value [2] was 60% and the “Transcripts for IL-6 (Northern blot)” value (mRNA of IL-6) was “absence of transcripts”. The “Transcripts for TNFα (Northern blot)” value (mRNA of TNFα) was “absence of transcripts”, the “Reduction of circulating IL-6 levels” value (circulating IL-6) was 60% and the “Inhibitory effect on TNFα production when added after 4 hours” value [3] was “disappearing”. The “Inhibitory effect on TNFα production when added up until 1 hour after LPS stimulation” value [3] was “the same”, the IC50 [3] was about 0.08 nM and the “Highest degree of inhibition of TNFα production” value [3] was about 60%. For the same substance, the “Reduction of circulating TNFα levels” value (circulating TNFα) was 60%.
